In ChEMBL document CHEMBL6120941, “Discovery of SIRT1-Activating Hydrogen Sulfide Donating Derivatives for Efficient Resistant of Myocardial Ischemic Injury” (J Med Chem, 2024):
Active and inactive are the calls of the source. The calls are words filed in the database; no cut-off is given here.

Key:
H9c2 [1] = experiment: Cardioprotective activity against CoCl2-induced cellular hypoxia injury in rat H9c2 cells assessed as increase in cell viability at 30 uM incubated for 24 hrs by CCK-8 assay; format: functional, cell-based
H9c2 [2] = experiment: Cardioprotective activity against CoCl2-induced cellular hypoxia injury in rat H9c2 cells assessed as cell viability at 0.625 uM incubated for 24 hrs by CCK-8 assay (reference value: 51.80 +/- 2.58 %); format: functional; settings: read-out: Activity
H9c2 [3] = experiment: Cardioprotective activity against CoCl2-induced cellular hypoxia injury in rat H9c2 cells assessed as cell viability at 1.25 uM incubated for 24 hrs by CCK-8 assay (reference value: 51.80 +/- 2.58 %); format: functional; settings: read-out: Activity
H9c2 [4] = experiment: Cardioprotective activity against CoCl2-induced cellular hypoxia injury in rat H9c2 cells assessed as cell viability at 2.5 uM incubated for 24 hrs by CCK-8 assay (reference value: 51.80 +/- 2.58 %); format: functional; settings: read-out: Activity
H9c2 [5] = experiment: Cardioprotective activity against CoCl2-induced cellular hypoxia injury in rat H9c2 cells assessed as cell viability at 5 uM incubated for 24 hrs by CCK-8 assay (reference value: 51.80 +/- 2.58 %); format: functional; settings: read-out: Activity
H9c2 [6] = experiment: Cardioprotective activity against CoCl2-induced cellular hypoxia injury in rat H9c2 cells assessed as cell viability at 10 uM incubated for 24 hrs by CCK-8 assay (reference value: 51.80 +/- 2.58 %); format: functional; settings: read-out: Activity

| Structure (SMILES) | Activity (H9c2 [1]) | viability at 0.625 µM (H9c2 [2]) [%] | viability at 1.25 µM (H9c2 [3]) [%] | viability at 2.5 µM (H9c2 [4]) [%] | viability at 5 µM (H9c2 [5]) [%] | viability at 10 µM (H9c2 [6]) [%] |
| --- | --- | --- | --- | --- | --- | --- |
| CC(C)(O)[C@H]1CC[C@@](C)([C@H]2CC[C@]3(C)[C@@H]2[C@H](O)C[C@@H]2[C@@]4(C)CC[C@H](OC(=O)CCC(=O)Oc5ccc(-c6nc(=O)ss6)cc5)C(C)(C)[C@@H]4[C@@H](O)C[C@]23C)O1 | inactive | 65.7 | 72.5 | 76 | 77.3 | 81.5 |
| CC(C)=CCC[C@](C)(O)[C@H]1CC[C@]2(C)[C@@H]1[C@H](O)C[C@@H]1[C@@]3(C)CC[C@H](OC(=O)c4ccc(N=C=S)cc4)C(C)(C)[C@@H]3[C@@H](O)C[C@]12C | inactive | 50.9 | 55.2 | 54 | 56.6 | 54.8 |
| CC(C)=CCC[C@](C)(O)[C@H]1CC[C@]2(C)[C@@H]1[C@H](O)C[C@@H]1[C@@]3(C)CC[C@H](OC(=O)c4ccc(N=C=S)cc4)C(C)(C)[C@@H]3CC[C@]12C | inactive | 54.7 | 61 | 60.7 | 67.5 | 61.5 |
| CC(C)(O)[C@@H]1CC[C@@](C)([C@H]2CC[C@]3(C)[C@@H]2[C@H](O)C[C@@H]2[C@@]4(C)CC[C@H](OC(=O)c5ccc(N=C=S)cc5)C(C)(C)[C@@H]4CC[C@]23C)O1 | inactive | 62.2 | 62.2 | 67.1 | 70 | 77.1 |
| CC(C)(O)[C@@H]1CC[C@@](C)([C@H]2CC[C@]3(C)[C@@H]2[C@H](O)C[C@@H]2[C@@]4(C)CC[C@H](OC(=O)CCC(=O)Oc5ccc(-c6cc(=S)ss6)cc5)C(C)(C)[C@@H]4CC[C@]23C)O1 | inactive | 68.4 | 71.4 | 79.6 | 80 | 82.2 |
| CC(C)(O)[C@H]1CC[C@@](C)([C@H]2CC[C@]3(C)[C@@H]2[C@H](O)C[C@@H]2[C@@]4(C)CC[C@H](OC(=O)CCC(=O)Oc5ccc(-c6cc(=S)ss6)cc5)C(C)(C)[C@@H]4CC[C@]23C)O1 | inactive | 65.1 | 66.8 | 67.5 | 69.5 | 72.5 |
| C=CCSSCCC(=O)O[C@H]1CC[C@]2(C)[C@H]3C[C@@H](O)[C@@H]4[C@@H]([C@]5(C)CC[C@H](C(C)(C)O)O5)CC[C@@]4(C)[C@]3(C)CC[C@H]2C1(C)C | inactive | 65.7 | 72.3 | 73.6 | 76.9 | 74.2 |
| O=C(Nc1ccccc1-c1cn2c(CN3CCNCC3)csc2n1)c1cnc2ccccc2n1 |  | 71.7 | 73.3 | 80.6 | 83.3 | 88.4 |
| O=C(O)c1ccc(N=C=S)cc1 | inactive | 51.1 | 53.7 | 59.3 | 59.5 | 63.5 |
| C=CCSSCCC(=O)O[C@H]1CC[C@]2(C)[C@H]3C[C@@H](O)[C@@H]4[C@@H]([C@]5(C)CC[C@H](C(C)(C)O)O5)CC[C@@]4(C)[C@]3(C)C[C@H](O)[C@H]2C1(C)C | inactive | 68.1 | 64.5 | 62.9 | 66.5 | 69.7 |
| CC(C)(O)[C@H]1CC[C@@](C)([C@H]2CC[C@]3(C)[C@@H]2[C@H](O)C[C@@H]2[C@@]4(C)CC[C@H](OC(=O)c5ccc(N=C=S)cc5)C(C)(C)[C@@H]4CC[C@]23C)O1 | inactive | 59.9 | 61.6 | 67.3 | 68.3 | 72.9 |
| C=CCSSCCC(=O)O | inactive | 51.7 | 57.5 | 68.4 | 71 | 80.3 |
| CC(C)(O)[C@@H]1CC[C@@](C)([C@H]2CC[C@]3(C)[C@@H]2[C@H](O)C[C@@H]2[C@@]4(C)CC[C@H](OC(=O)c5ccc(N=C=S)cc5)C(C)(C)[C@@H]4[C@@H](O)C[C@]23C)O1 | inactive | 56.9 | 55.5 | 58.8 | 61.4 | 63.1 |
| CC(C)=CCC[C@](C)(O)[C@H]1CC[C@]2(C)[C@@H]1[C@H](O)C[C@@H]1[C@@]3(C)CC[C@H](O)C(C)(C)[C@@H]3CC[C@]12C | inactive | 52.5 | 63 | 67.5 | 67.5 | 68.8 |
| C=CCSSCCC(=O)O[C@H]1CC[C@]2(C)[C@H]3C[C@@H](O)[C@@H]4[C@@H]([C@@](C)(O)CCC=C(C)C)CC[C@@]4(C)[C@]3(C)CC[C@H]2C1(C)C | inactive | 46 | 50.8 | 42.5 | 60.6 | 62.7 |
| O=C(O)CCC(=O)Oc1ccc(-c2cc(=S)ss2)cc1 | inactive | 66.4 | 67.4 | 74.3 | 77.6 | 80.3 |
| CC(C)(O)[C@H]1CC[C@@](C)([C@H]2CC[C@]3(C)[C@@H]2[C@H](O)C[C@@H]2[C@@]4(C)CC[C@H](OC(=O)c5ccc(N=C=S)cc5)C(C)(C)[C@@H]4[C@@H](O)C[C@]23C)O1 | inactive | 52.5 | 59.6 | 57.1 | 58.6 | 58.5 |
| O=C(O)CCC(=O)Oc1ccc(-c2nc(=O)ss2)cc1 | inactive | 52.4 | 55.1 | 55.9 | 57 | 57.2 |
| CC(C)=CCC[C@](C)(O)[C@H]1CC[C@]2(C)[C@@H]1[C@H](O)C[C@@H]1[C@@]3(C)CC[C@H](O)C(C)(C)[C@@H]3[C@@H](O)C[C@]12C | inactive | 66 | 66.8 | 67.3 | 71.4 | 71.6 |
| CC(C)(O)[C@H]1CC[C@@](C)([C@H]2CC[C@]3(C)[C@@H]2[C@H](O)C[C@@H]2[C@@]4(C)CC[C@H](OC(=O)CCC(=O)Oc5ccc(-c6cc(=S)ss6)cc5)C(C)(C)[C@@H]4[C@@H](O)C[C@]23C)O1 | inactive | 67.3 | 66.2 | 68.4 | 68.1 | 68.3 |
| C=CCSSCCC(=O)O[C@H]1CC[C@]2(C)[C@H]3C[C@@H](O)[C@@H]4[C@@H]([C@@](C)(O)CCC=C(C)C)CC[C@@]4(C)[C@]3(C)C[C@H](O)[C@H]2C1(C)C | inactive | 49 | 58.4 | 64.4 | 63.1 | 65.7 |
| CC(C)(O)[C@H]1CC[C@@](C)([C@H]2CC[C@]3(C)[C@@H]2[C@H](O)C[C@@H]2[C@@]4(C)CC[C@H](O)C(C)(C)[C@@H]4[C@@H](O)C[C@]23C)O1 | inactive | 56.5 | 55.6 | 57 | 55.6 | 61.5 |
| CC(C)(O)[C@@H]1CC[C@@](C)([C@H]2CC[C@]3(C)[C@@H]2[C@H](O)C[C@@H]2[C@@]4(C)CC[C@H](OC(=O)CCC(=O)Oc5ccc(-c6cc(=S)ss6)cc5)C(C)(C)[C@@H]4[C@@H](O)C[C@]23C)O1 | inactive | 68.4 | 73.6 | 76.9 | 77.2 | 75.2 |
| CC(C)(O)[C@@H]1CC[C@@](C)([C@H]2CC[C@]3(C)[C@@H]2[C@H](O)C[C@@H]2[C@@]4(C)CC[C@H](O)C(C)(C)[C@@H]4[C@@H](O)C[C@]23C)O1 [PROTOPANAXATRIOL OXIDE II] | inactive | 52 | 54 | 56.7 | 69.6 | 73.4 |
| CC(C)(O)[C@H]1CC[C@@](C)([C@H]2CC[C@]3(C)[C@@H]2[C@H](O)C[C@@H]2[C@@]4(C)CC[C@H](O)C(C)(C)[C@@H]4CC[C@]23C)O1 | inactive | 68.7 | 66.4 | 65.4 | 66.9 | 75.5 |
